The target in assay [1] is T1, Rad6 (Homo sapiens, UniProt P63146). Description: biochemical. The class given is biochemical. As to conditions: for inhibition of formation of the Rad6∼ubiquitin thioester conjugate: Alpha assay.
For assay [2], the target named is Rad18 (Homo sapiens, UniProt P63146). Put plainly: biochemical. The class given is biochemical. As to conditions: for inhibition of Rad18 autoubiquitination: Alpha assay.
Another assay relates to HeLa cells. Description: Cell survival. The class given is cell-based. As to conditions: Homo sapiens, 24 h, read-out: IC50 (μM) for cell survival.
In a further assay the test system is PCNA ubiquitination. Description: Alpha assay for overall PCNA ubiquitination. As to conditions: for IC50: read-out: IC50 PCNA–Ub, SE and 95% CI in cell. The class given is biochemical, human.
The target in another assay is T2, Uba1 (Homo sapiens, UniProt P22314).
T2 sequence (P22314 1-1058): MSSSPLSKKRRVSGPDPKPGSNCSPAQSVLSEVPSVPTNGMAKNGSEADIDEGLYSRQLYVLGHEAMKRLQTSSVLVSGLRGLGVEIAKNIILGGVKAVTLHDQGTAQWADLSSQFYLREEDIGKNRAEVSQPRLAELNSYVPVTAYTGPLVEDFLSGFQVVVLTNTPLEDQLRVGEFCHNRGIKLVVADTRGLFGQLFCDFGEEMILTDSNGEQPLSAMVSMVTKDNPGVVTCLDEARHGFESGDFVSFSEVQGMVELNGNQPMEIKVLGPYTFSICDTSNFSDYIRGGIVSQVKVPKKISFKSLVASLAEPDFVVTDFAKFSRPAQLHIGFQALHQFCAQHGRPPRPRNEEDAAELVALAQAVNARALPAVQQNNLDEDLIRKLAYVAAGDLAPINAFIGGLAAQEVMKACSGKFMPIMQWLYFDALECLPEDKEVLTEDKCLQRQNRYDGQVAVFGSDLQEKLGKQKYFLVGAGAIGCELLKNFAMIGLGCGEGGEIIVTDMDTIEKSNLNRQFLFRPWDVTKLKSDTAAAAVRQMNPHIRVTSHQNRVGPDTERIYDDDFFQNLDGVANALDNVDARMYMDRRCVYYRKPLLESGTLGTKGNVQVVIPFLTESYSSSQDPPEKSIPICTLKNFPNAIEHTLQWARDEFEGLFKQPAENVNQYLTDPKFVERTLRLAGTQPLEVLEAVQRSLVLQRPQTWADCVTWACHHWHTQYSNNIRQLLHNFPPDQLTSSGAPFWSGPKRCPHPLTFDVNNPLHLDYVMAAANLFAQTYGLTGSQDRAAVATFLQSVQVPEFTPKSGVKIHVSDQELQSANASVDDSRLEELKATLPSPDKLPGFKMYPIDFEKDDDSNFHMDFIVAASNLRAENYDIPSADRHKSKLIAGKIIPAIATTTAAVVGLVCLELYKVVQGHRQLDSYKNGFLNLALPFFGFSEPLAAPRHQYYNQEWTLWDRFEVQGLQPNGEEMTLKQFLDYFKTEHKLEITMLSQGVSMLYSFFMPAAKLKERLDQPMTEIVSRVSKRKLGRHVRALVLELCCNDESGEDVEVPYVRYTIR
Put plainly: Uba1∼ubiquitin thioester formation Alpha assay. The class given is biochemical. As to conditions: for inhibition of Uba1∼ubiquitin thioester formation: Alpha assay.

A further assay has as its target Mms2–Ubc13 (Homo sapiens, UniProt P61088+Q15819). Put plainly: Mms2–Ubc13∼ubiquitin thioester formation gel-based assay. Format: biochemical. To be noted: at 100 μM, silver-stained gel.
Another assay deals with Rad6–Rad18 interaction (Homo sapiens, UniProt P63146). Description: Rad6–Rad18 interaction Alpha assay. The class given is binding. As to conditions: for disruption of the Rad6–Rad18 interaction: Alpha assay.
The next assay concerns the target Rad6–Ubr1 interaction (Homo sapiens, UniProt P63146). Put plainly: Rad6–Ubr1 interaction Alpha assay. The class given is binding.
Assay [3] has as its target Rad18 (Homo sapiens, UniProt Q9NS91). Description: Microscale thermophoresis, binding to GFP-Rad18. To be noted: low concentrations used for the Rad6-binding study.
Assay [4] concerns the target T1, Rad6. Put plainly: Microscale thermophoresis, binding to GFP-Rad6.

T1 sequence (P63146 whole entry): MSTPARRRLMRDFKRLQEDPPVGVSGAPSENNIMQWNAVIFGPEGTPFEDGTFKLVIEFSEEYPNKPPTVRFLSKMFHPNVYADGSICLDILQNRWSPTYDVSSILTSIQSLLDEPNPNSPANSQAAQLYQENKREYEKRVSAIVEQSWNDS
Chain of Rad6–Rad18 interaction (P63146 whole entry): as above
Chain of Rad18 (Homo sapiens, UniProt P63146) (P63146 whole entry): as above
Chain of Mms2–Ubc13 (P61088 whole entry): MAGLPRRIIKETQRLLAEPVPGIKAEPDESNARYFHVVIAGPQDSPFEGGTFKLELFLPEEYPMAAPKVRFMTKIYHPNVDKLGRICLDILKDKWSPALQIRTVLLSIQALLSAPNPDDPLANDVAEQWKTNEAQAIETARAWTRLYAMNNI
Chain of Mms2–Ubc13 (Q15819 whole entry): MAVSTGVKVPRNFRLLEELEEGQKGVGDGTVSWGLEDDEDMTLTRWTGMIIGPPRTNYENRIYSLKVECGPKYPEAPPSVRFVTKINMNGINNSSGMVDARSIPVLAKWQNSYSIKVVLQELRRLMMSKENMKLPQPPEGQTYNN
Chain of Rad6–Ubr1 interaction (P63146 whole entry): as the sequence (P63146 whole entry) above
Chain of Rad18 (Homo sapiens, UniProt Q9NS91) (Q9NS91 whole entry): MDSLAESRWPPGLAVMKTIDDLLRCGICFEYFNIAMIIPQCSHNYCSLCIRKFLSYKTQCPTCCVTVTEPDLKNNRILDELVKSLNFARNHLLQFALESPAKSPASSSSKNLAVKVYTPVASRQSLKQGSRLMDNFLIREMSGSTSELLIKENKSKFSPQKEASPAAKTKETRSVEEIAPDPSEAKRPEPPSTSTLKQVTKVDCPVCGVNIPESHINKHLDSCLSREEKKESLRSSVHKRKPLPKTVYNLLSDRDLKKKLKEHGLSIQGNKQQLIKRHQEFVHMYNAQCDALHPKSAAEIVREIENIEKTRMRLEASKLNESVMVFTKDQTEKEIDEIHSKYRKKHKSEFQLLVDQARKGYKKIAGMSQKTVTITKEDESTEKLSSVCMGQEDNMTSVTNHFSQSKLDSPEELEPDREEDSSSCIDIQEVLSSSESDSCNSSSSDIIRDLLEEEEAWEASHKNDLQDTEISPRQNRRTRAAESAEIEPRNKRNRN

Take `CN(C)c1ccc(-c2c3cc(O)c(=O)cc-3oc3cc(O)c(O)cc23)cc1` [NSC 80693, 9-[4-(dimethylamino)phenyl]-2,6,7-trihydroxy-3H-xanthen-3-one]: the IC50 (in general, the midpoint of a concentration-inhibition curve) against Rad6 [1] was 91.8 µM; at Rad18 [2] it was 13.2 µM; with HeLa cells it was 7.67 µM; with PCNA ubiquitination, 4.28 µM; against Uba1, above 100 µM; at Rad6–Rad18 interaction, 14.6 µM. Besides, the “inhibition of formation of the Rad6∼ubiquitin thioester conjugate” value on Rad6 [1] is recorded as “inhibit”. In addition, the “inhibition of Rad18 autoubiquitination” value at Rad18 [2] is recorded as “inhibit”. In addition, the “Mms2–Ubc13∼Ub inhibition on gel” value at Mms2–Ubc13 is “No inhibition on gel at 100 μM”. On Rad6–Rad18 interaction, the “disruption of the Rad6–Rad18 interaction” value is listed as “disrupt”. For the same molecule, the “Rad6–Ubr1 inhibition by Alpha” value at Rad6–Ubr1 interaction (at 50 μM) was “Little inhibition by Alpha at 50 μM”.

As for `O=c1cc2oc3cc(O)c(O)cc3c(-c3ccccc3O)c-2cc1O` [NSC 9037, 2,6,7-trihydroxy-9-(2-hydroxyphenyl)-3H-xanthen-3-one], the IC50 on Rad6 [1] was 8.9 µM; against Rad18 [2], 4.46 µM; in the assay with HeLa cells, 62.2 µM; in the assay on PCNA ubiquitination, 4.54 µM; on Uba1, above 100 µM; against Rad6–Rad18 interaction, 6.19 µM. The same molecule had an IC50 on Rad6–Ubr1 interaction above 50 µM. Moreover, the “inhibition of formation of the Rad6∼ubiquitin thioester conjugate” value against Rad6 [1] is listed as “inhibit”. For the same molecule, at Rad18 [2], the “inhibition of Rad18 autoubiquitination” value is “inhibit”. The “binding to Rad18” value at Rad18 [3] is recorded as “very weak binding”. For the same molecule, on Mms2–Ubc13, the “Mms2–Ubc13∼Ub inhibition on gel” value is “No inhibition on gel at 100 μM”. The Kd (usually the concentration at which binding is half-saturated) at Rad6 [4] turned out to be 3.79 ± 2.94 µM. Moreover, the “disruption of the Rad6–Rad18 interaction” value on Rad6–Rad18 interaction was “disrupt”.

On to `O=C(O)c1ccc(-c2c3ccc(=O)cc-3oc3cc(O)ccc23)cc1` [NSC 119891, 4-(3-hydroxy-6-oxoxanthen-9-yl)benzoic acid], for which the IC50 with HeLa cells was 208 µM; at Uba1 it was above 100 µM. Besides, the “Mms2–Ubc13∼Ub inhibition on gel” value at Mms2–Ubc13 is listed as “No inhibition on gel at 100 μM”.

For the molecule `Cc1cc2c(-c3ccccc3)c3cc(C)c(N)cc3nc2cc1N` [NSC 71947, 2,7-dimethyl-9-phenylacridine-3,6-diamine], the IC50 with HeLa cells was 11.8 µM; with PCNA ubiquitination, 24.9 µM; on Uba1 it was above 100 µM. For the same molecule, the “Mms2–Ubc13∼Ub inhibition on gel” value at Mms2–Ubc13 was “No inhibition on gel at 100 μM”.

Regarding `O=C(O)c1cccc(-c2c3ccc(=O)cc-3oc3cc(O)ccc23)c1` [NSC 119888, 3-(3-hydroxy-6-oxoxanthen-9-yl)benzoic acid], the IC50 with HeLa cells turned out to be 75.3 µM. Also, on Uba1, 53.8 µM corresponded to half-maximal inhibition (IC50) and the “inhibition of Uba1∼ubiquitin thioester formation” value is recorded as “inhibit”. The “Mms2–Ubc13∼Ub inhibition on gel” value at Mms2–Ubc13 is “No inhibition on gel at 100 μM”.

Regarding `COc1ccc(C2c3cc(O)c(OC)cc3Oc3cc(OC)c(O)cc32)cc1` [NSC 348718, 3,6-dimethoxy-9-(4-methoxyphenyl)-9H-xanthene-2,7-diol], the IC50 with HeLa cells is 27.7 µM; in the assay on PCNA ubiquitination it was above 100 µM; at Uba1, above 100 µM. Also, the “effect on PCNA ubiquitination” value in the assay with PCNA ubiquitination (Figure 3G) was “inactive”. Also, at Mms2–Ubc13, the “Mms2–Ubc13∼Ub inhibition on gel” value is recorded as “No inhibition on gel at 100 μM”.

With `O=C(O)C1CC=CCC1c1c2ccc(=O)cc-2oc2cc(O)ccc12` (stereo not drawn) [NSC 157411, 6-(3-Hydroxy-6-oxo-xanthen-9-yl)cyclohex-3-ene-1-carboxylic acid], the IC50 is 428 µM in the assay on HeLa cells, 8.44 µM in the assay on PCNA ubiquitination and 24.8 µM at Uba1. Besides, the “inhibition of Uba1∼ubiquitin thioester formation” value on Uba1 is given as “inhibit”. Moreover, the “Mms2–Ubc13∼Ub inhibition on gel” value on Mms2–Ubc13 is “No inhibition on gel at 100 μM”.

Values taken from PMC8958325 (iScience, 2022).
